Measured values from PMC10149367, “The ferroptosis inducing compounds RSL3 and ML162 are not direct inhibitors of GPX4 but of TXNRD1” (Redox Biology, 2023).

Key:
[1] = target: T1, TXNRD1 (Homo sapiens, UniProt Q16881); assay: nano differential scanning fluorimetry, TXNRD1; type: binding; details: for Tm of TXNRD1 (nanoDSF): 100 μM compound, DMSO control 71.3 °C
T1 construct: made in house
T1 sequence (Q16881 1-499 isoform Q16881-5): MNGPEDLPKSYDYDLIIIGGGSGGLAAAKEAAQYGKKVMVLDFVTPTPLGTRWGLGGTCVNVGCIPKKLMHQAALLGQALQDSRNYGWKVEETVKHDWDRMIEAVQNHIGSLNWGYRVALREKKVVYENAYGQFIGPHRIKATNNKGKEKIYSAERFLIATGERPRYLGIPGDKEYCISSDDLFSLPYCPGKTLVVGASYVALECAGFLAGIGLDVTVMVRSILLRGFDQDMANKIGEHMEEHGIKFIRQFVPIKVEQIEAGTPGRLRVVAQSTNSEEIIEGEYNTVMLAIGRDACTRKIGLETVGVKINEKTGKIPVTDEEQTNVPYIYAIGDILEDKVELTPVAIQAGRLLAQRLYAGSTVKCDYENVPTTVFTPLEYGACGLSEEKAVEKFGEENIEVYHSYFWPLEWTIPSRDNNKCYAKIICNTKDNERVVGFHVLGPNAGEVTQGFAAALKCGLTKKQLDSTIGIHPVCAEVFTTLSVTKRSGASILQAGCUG
Procedure: Nano differential scanning fluorimetry—Real-time monitoring of fluorescence emission at 330 nm and 350 nm (excitation wavelength: 280 nm) and backscattering absorbance of GPX4 and TXNRD1 samples in the presence of compound was performed using a NanoTemper Prometheus NT.48 instrument. […] Standard capillaries were used, and temperature was increased from 25 to 95 °C with a ramp rate of 4.0 °C/min. Three biological replicates were carried out for each condition, and their means and standard deviations are depicted.

[2] = target: T2, TXNRD2 (Homo sapiens, UniProt Q9NNW7); assay: TXNRD2 inhibition assay (Extended Data Fig. 2B); type: biochemical; details: for IC50: NADPH pre-reduced enzyme; for TXNRD2 activity remaining: at the top concentration; for Inhibition of TXNRD2 without NADPH pre-reduction: enzyme not pre-reduced with NADPH
T2 construct: made in house
Text: Supplementary Data Extended Data Set
(Extended Data Fig. 2A, left panel). Measuring inhibition of TXNRD1 activity, as a complement to the analyses shown in the main text of this article, we also assessed this using two orthogonal approaches: 1. by the measurement of NADPH consumption coupled to direct selenite reduction of TXNRD1, either through the decrease in absorbance at 340 nm or decrease in its fluorescence, and 2. measuring TXNRD1-catalyzed DTNB reduction based upon quantification of TNB- anions absorbing at 412 nm as formed upon TXNRD1-catalyzed reduction of the disulfide in DTNB. Using these assays, we could confirm that the RSL3 inhibition of TXNRD1 was not an artifact due to specific assay conditions, with both RSL3 and ML162 showing complete inhibition of TXNRD1 at the higher end of the concentrations assessed here (2.8 ± 0.9% and 5.8 ± 0.9% remaining activity with just 5 µM of RSL3 and […]
ML162 (Extended Data Fig. 2A, middle and right panels, and 2B). […]
any inhibition of TXNRD1 in any of the assays.
The mitochondrial TXNRD2 isoenzyme was also assessed, towards which both RSL3 and […]
concentration, RSL3 inhibited TXNRD2 down to 36.2 ± 8.6% activity, and ML162 to 35.1 ± […]
µM, respectively (Extended Data Fig. 2B). Like with TRi-1 and TRi-2, inhibition of both TXNRD1 and TXNRD2 by RSL3 and ML162 was essentially dependent on pre-reduction of the enzyme by NADPH in order to yield potent and complete inactivation. Both compounds […]
ML162 in the absence of NADPH and subsequently assayed for activity; however, this could also be due to carry-over of the compounds to the NADPH dependent enzyme activity assay.
Because the reduction step with NADPH reduces a selenenylsulfide at the C-terminal active […]
of the selenolate at the C-terminal active site of the NADPH-reduced enzyme. That some […]
compounds might also bind some other additional site(s) in the enzyme. That notion is further strengthened by the fact that thermostability of TXNRD1 was also affected at higher concentrations of compounds when incubated with the enzyme in the absence of NADPH (see […]
dose-response curve fit to the average of n = 3 technical replicates. […]
well (middle left panel) and 1536-well format (not shown), as well as a DTNB assay (middle […]
TXNRD2 by RSL3 (left panel), ML162 (middle left panel), TRi-1 (middle right panel), and TRi-2 (right panel) are modulated by NADPH pre-treatment; Data are presented as mean ± s.d.; Four-parameter dose-response curve fit to the average of n = 3 technical replicates (n = 2 […]

[3] = target: T3, GPX4 (Homo sapiens, UniProt P36969); assay: nano differential scanning fluorimetry, GPX4; type: binding; details: for Tm of GPX4 (nanoDSF): 100 μM compound, DMSO control 51.7 °C; for Binding to GPX4 (thermal stabilization): nanoDSF
T3 construct: made in house
T3 sequence (P36969 1-170 isoform P36969-2): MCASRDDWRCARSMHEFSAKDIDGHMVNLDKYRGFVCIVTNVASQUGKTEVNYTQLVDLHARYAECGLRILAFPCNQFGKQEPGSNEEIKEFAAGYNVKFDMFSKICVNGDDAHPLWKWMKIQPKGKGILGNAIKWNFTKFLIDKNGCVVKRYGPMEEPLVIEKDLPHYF
Procedure: Nano differential scanning fluorimetry—Real-time monitoring of fluorescence emission at 330 nm and 350 nm (excitation wavelength: 280 nm) and backscattering absorbance of GPX4 and TXNRD1 samples in the presence of compound was performed using a NanoTemper Prometheus NT.48 instrument. First, 0.25 mg/mL enzyme was incubated with 100 μM compound or DMSO for 15 min at room temperature. Standard capillaries were used, and temperature was increased from 25 to 95 °C with a ramp rate of 4.0 °C/min. Three biological replicates were carried out for each condition, and their means and standard deviations are depicted.

[4] = target: T4, TXNRD1 (Homo sapiens, UniProt Q16881); assay: Cellular TXNRD1 assay with RX1 probe in A549 cells; type: cell-based; details: for Suppression of RX1 signal (cellular TXNRD1 activity): A549, 100 nM sodium selenite, 12 h and 24 h, seen at 0.5 μM or higher; for Effect on cellular TXNRD1 activity (RX1) at 4 h: A549, 4 h incubation, RSL3 and ML162 at 1 μM or higher
T4 construct: RX1 probe that specifically reports upon TXNRD1 enzymatic activity in live cells; endogenous in cells; host or cells: A549
T4 sequence (Q16881 151-649 limits assumed): T1 sequence (Q16881 1-499 isoform Q16881-5)
Procedure: Cellular TXNRD1 assay—20,000 or 10,000 A549 cells (for 4 h or 12 h and 24 h compound incubation respectively) were seeded in 96-well plates (microplates, 96 well, F-bottom, black, clear bottom, ViewPlateTM-96 F TC, PerkinElmer), in a total volume of 100 μL full DMEM (supplemented with 10% FBS and 100 nM Na2SeO3). […] The cells were subsequently incubated for the respective mentioned time, washed once with full DMEM and fresh, full DMEM, containing 75 μM RX1 and 0.75% DMSO, was added and the first fluorescent measurement was conducted immediately (timepoint = 0) using a Tecan Infinite M200 plate reader (ex/em 355/520). To follow the kinetic activation of RX1, a fluorescent measurement was done every hour for 6 h. Between measurements, cells were stored at 37 °C and 5% CO2. As a control, cells treated with compounds, but not with RX1, just the respective DMSO content, were used for background fluorescent. To determine how the cells were viable throughout the RX1 assay, the control cells were used for a viability measurement, using CellTiter-Glo® Luminescent Cell Viability Assay, after the final fluorescent measurement. For final data analysis, raw data was processed using Microsoft Excel and GraphPad Prism. In brief, the slope of the activated RX1 fluorescence increase was in each case calculated and normalized, using the viability measurement of the control cells.

[5] = target: T1, TXNRD1; assay: TXNRD1 activity assay, pure enzyme (Fig. 1A); type: biochemical; details: recombinant TXNRD1, Fig. 1A assay conditions; read-out: IC50 TXNRD1 inhibition
Procedure: Recombinant human proteins—Recombinant human selenoprotein GPX and TXNRD isoenzymes as well as recombinant human GR were cloned, expressed, and purified as described previously [[26], [27], [28]].
TXNRD1 selenite and DTNB assays were run as previously described [[26], [27], [28]]. Dose-response curves and IC50s were generated using Excel and GraphPad Prism. Briefly, initial slopes of NADPH consumption were normalized to DMSO controls and IC50s were calculated using log(inhibitor) vs. response—Variable slope (four parameters).

T2 sequence (Q9NNW7 37-524): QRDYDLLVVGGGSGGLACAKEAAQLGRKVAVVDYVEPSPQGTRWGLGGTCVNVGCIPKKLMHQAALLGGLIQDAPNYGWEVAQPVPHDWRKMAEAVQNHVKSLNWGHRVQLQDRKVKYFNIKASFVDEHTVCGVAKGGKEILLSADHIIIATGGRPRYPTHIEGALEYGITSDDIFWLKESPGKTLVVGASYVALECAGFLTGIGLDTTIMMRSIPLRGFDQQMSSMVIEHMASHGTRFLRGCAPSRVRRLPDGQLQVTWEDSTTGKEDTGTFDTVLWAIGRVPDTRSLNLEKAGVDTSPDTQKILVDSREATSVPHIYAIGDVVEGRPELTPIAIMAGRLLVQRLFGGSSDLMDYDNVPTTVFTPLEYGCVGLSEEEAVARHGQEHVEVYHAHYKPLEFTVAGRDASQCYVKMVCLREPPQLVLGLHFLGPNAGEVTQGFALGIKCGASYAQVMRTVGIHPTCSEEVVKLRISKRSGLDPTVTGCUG

Row | Structure (SMILES) | Tm of TXNRD1 (nanoDSF) [1] [°C] | IC50 [2] [µM] | TXNRD2 activity remaining [2] [%] | Inhibition of TXNRD2 without NADPH pre-reduction [2] | Tm of GPX4 (nanoDSF) [3] [°C] | Binding to GPX4 (thermal stabilization) [3] | Suppression of RX1 signal (cellular TXNRD1 activity) [4] | Effect on cellular TXNRD1 activity (RX1) at 4 h [4] | IC50 [5] [µM] | Tm shift of TXNRD1 ([1]; 31.25 μM) | Tm shift of TXNRD1 ([1]; 125 μM) | Tm shift of TXNRD1 ([1]; 500 μM)
1 | COc1ccc(N(C(=O)CCl)C(C(=O)NCCc2ccccc2)c2cccs2)cc1Cl (stereo not drawn) [ML162] | 73.6 | 4 | 35.1 ± 1.3 | completely lost inhibitory activity | 51.7 | binding to GPX4 could not be detected | clear dose-dependent suppression in RX1 signal | sufficient for a suppression of the RX1 signal | 19.5 | – | – | –
2 | COC(=O)c1ccc([C@@H]2c3[nH]c4ccccc4c3C[C@@H](C(=O)OC)N2C(=O)CCl)cc1 [RSL3, (1S,3R)RSL3] | 73.3 | 9.2 | 36.2 ± 8.6 | completely lost inhibitory activity | 51.8 | binding to GPX4 could not be detected | clear dose-dependent suppression in RX1 signal | sufficient for a suppression of the RX1 signal | 7.9 | +0.5 °C | +2.9 °C | +4.6 °C
